In patent US3947411A, “Novel 1-aryl-2-arylalkyl-3-or-4-[4'-(substituted-alkyl)piperazino-1']butanols- 2-or-butenes-1, and methods of manufacture thereof” (Warner-Lambert Company, priority 1972, dated 1976):
Converted amounts (≈) assume the structure as drawn.

Columns and labels:
Aspergillus niger = test: Agar well inhibition zone test against fungi, Aspergillus niger (Table II); settings: quantity per well giving inhibition zone (500, 50, 5 μg tested); Sabouraud agar, 28°, 48 hours
Procedure: (§1) The efficacy of the compounds against fungi was tested as follows:
(§2) The test organisms, in this case the blastomycete Candida albicans and the mold Aspergillus niger, were inoculated onto Sabouraud agar plates by pouring a photometrically adjusted standard suspension of organisms on the plate. After inoculation, wells with a diameter of 5.0 mm were punched in the agar, and filled with 50 ul of the compound solution mentioned before. The quantity of compound applied thus amounted to 500 μg, 50 μg and 5 μg. After incubation at 28° for 48 hours, the quantity of compound was determined at which an inhibition of the organism's growth, in form of an inhibition zone around the corresponding well, was present.

A. niger [1] = test: Minimum inhibitory concentration for fungi, tube dilution, A. niger (Table IV); settings: Aspergillus niger, 48 h, read-out: Minimum Inhibitory Concentration, A. niger
Procedure: (§3) A tube dilution series of the respective compound in Sabouraud nutrient broth, whose individual tubes contained concentrations of 1024 μg, 512 μg, 256 μg, 128 μg, 64 μg, 32 μg, 16 μg, 8 μg, 4 μg, 2 μg, 1.1 μg and 0.5 μg/ml, was prepared and inoculated with a photometrically standardized suspension of the test organisms or the spores thereof.

C. albicans [2] = test: Minimum inhibitory concentration for fungi in presence of serum, C. albicans (Table VI); type: cell-based; settings: Candida albicans; Sabouraud nutrient broth + 10% bovine serum, 28°C, 48 hours
Staph. aureus = test: Minimum inhibitory concentration for bacteria, tube dilution, Staph. aureus (Table V); settings: Staphylococcus aureus, 48 h, read-out: Minimum Inhibitory Concentration, Staph. aureus
Procedure: A tube dilution series of the respective compound in nutrient broth whose individual tubes contained concentrations of 1024 μg, 512 μg, 256 μg, 128 μg, 64 μg, 32 μg, 1 μg, 8 μg, 4 μg, 2 μg, 1.1 μg and 0.5 μg/ml was prepared and inoculated with a photometrically standardized suspension of the test organisms.

[3] = test system: Mycobacterium tuberculosis II 37 RV (typus humanus); test: Efficacy against Mycobacteria, Tb-broth dilution series (Table I); type: cell-based; settings: 504 h, Dubos Tb-broth + 10% bovine serum, 21 days, read-out: Minimum Inhibitory Concentration
A. niger [4] = test: Minimum inhibitory concentration for fungi in presence of serum, A. niger (Table VI); type: cell-based; settings: Aspergillus niger; Sabouraud nutrient broth + 10% bovine serum, 28°C, 48 hours
Escherichia coli = test: Agar well inhibition zone test against bacteria, Escherichia coli (Table III); settings: quantity per well giving inhibition zone (500, 50, 5 μg tested); nutrient agar, 37°, 24 hours
Procedure: The efficacy of the compounds against bacteria was tested as follows:
The test organisms, in this case Staphylococcus aureus and Escherichia coli, were inoculated on nutrient agar as described in Example 12, wells were punched, and the solutions of the compounds were transferred to fill the wells. The quantity of compound in the wells amounted again to 500 μg, 50 μg and 5 μg.
After incubation a 37° for 24 hours the quantity of compound was determined at which an inhibition of the organism's growth, in the form of an inhibition zone around the corresponding well, occurred.

Solubility in water = type: physicochemical; settings: hydrochlorides or oxalates, read-out: solubilities (in water)
Procedure: The following list contains examples of those compounds which are made according to the methods disclosed. (The individual compounds are identified by elementary analyses and infrared spectra, by ultra-violet or nuclear resonance spectra, if necessary.) Individual melting points and solubilities (in water) are also given as is the method by which each compound is prepared.
The melting points and solubilities are given for the Hydrochlorides I - XVI; XVIII - XXVII; XXIX - XXXV; XXXVII - XLII; XLIV - LXII; LXIV - LXVII, and the Oxalates XVII; […]; XXXVI; LXIII.

C. albicans [5] = test: Minimum inhibitory concentration for fungi, tube dilution, C. albicans (Table IV); settings: Candida albicans, 48 h, read-out: Minimum Inhibitory Concentration, C. albicans
Procedure: as §3

Staphylococcus aureus = test: Agar well inhibition zone test against bacteria, Staphylococcus aureus (Table III); settings: quantity per well giving inhibition zone (500, 50, 5 μg tested); nutrient agar, 37°, 24 hours
Candida albicans = test: Agar well inhibition zone test against fungi, Candida albicans (Table II); settings: quantity per well giving inhibition zone (500, 50, 5 μg tested); Sabouraud agar, 28°, 48 hours
Procedure: as §1, §2

SMILES	Inhibition Area at μg, Asp. niger (Aspergillus niger) [µg]	MIC (A. niger [1]) [µg/mL]	MIC (C. albicans [2]) [µg/mL]	MIC (Staph. aureus) [µg/mL]	MIC [3] [µg/mL]	MIC (A. niger [4]) [µg/mL]	Inhibition Area at μg, E. coli (Escherichia coli) [µg]	solubility (Solubility in water) [mg/mL]	MIC (C. albicans [5]) [µg/mL]	Inhibition Area at μg, Staph. aureus (Staphylococcus aureus) [µg]	Inhibition Area at μg, Cand. albicans (Candida albicans) [µg]
CC(N1CCN(CCN2CCCC2)CC1)C(O)(Cc1ccccc1)Cc1ccccc1 (stereo not drawn) [III, 1-phenyl-2-benzyl-3-[4'-(β-pyrrolidino-ethyl)-piperazino-1']-butanol-2]	50	64 (≈ 152 µM)	64	512 (≈ 1210 µM)	50	128	500	50 (≈ 119000 µM)	32 (≈ 75.9 µM)	50	50
Cc1cccc(CC(O)(Cc2cccc(C)c2)C(C)N2CCN(C)CC2)c1 (stereo not shown) [IL, 1-m-tolyl-2-(m-methyl-benzyl)-3-(4'-methyl-piperazino-1')-butanol-2]	50	32 (≈ 87.3 µM)	256	128 (≈ 349 µM)	100	128	500	50 (≈ 136000 µM)	32 (≈ 87.3 µM)	50	50
CC(N1CCN(CCN2CCCCC2)CC1)C(O)(Cc1ccccc1)Cc1ccccc1 (stereo not drawn) [IV, 1-phenyl-2-benzyl-3-[4'-(β-piperidino-ethyl)-piperazino-1']-butanol-2]	500	–	32	–	100	–	> 500	50 (≈ 115000 µM)	32 (≈ 73.5 µM)	500	50
CC1CCN(CCN2CCN(C(C)C(O)(Cc3ccccc3)Cc3ccccc3)CC2)CC1 (stereo not drawn) [IX, 1-phenyl-2-benzyl-3-{4'-[β-(4"-methyl-piperidino)-ethyl]-piperazino-1'}-butanol-2]	50	128 (≈ 285 µM)	32	–	100	–	500	50 (≈ 111000 µM)	16 (≈ 35.6 µM)	500	50
CC(N1CCNCC1)C(O)(Cc1ccccc1)Cc1ccccc1 (stereo not shown) [L, 1-phenyl-2-benzyl-3-piperazino-butanol-2]	50	–	512	–	500	–	500	10 (≈ 30800 µM)	–	500	50
CCC(N1CCN(C)CC1)C(O)(Cc1ccccc1)Cc1ccccc1 (stereo not shown) [LVIII, 1-phenyl-2-benzyl-3-(4'-methyl-piperazino-1')-pentanol-2]	50	128 (≈ 363 µM)	–	256 (≈ 726 µM)	100	–	500	< 10	256 (≈ 726 µM)	50	50
CC(N1CCN(CCN2CCOCC2)CC1)C(O)(Cc1ccccc1)Cc1ccccc1 (stereo not drawn) [V, 1-phenyl-2-benzyl-3-[4'-(β-morpholino-ethyl)-piperazino-1']-butanol-2]	50	64 (≈ 146 µM)	–	512 (≈ 1170 µM)	100	256	500	50 (≈ 114000 µM)	> 1020	50	50
CC1CCCCN1CCN1CCN(C(C)C(O)(Cc2ccccc2)Cc2ccccc2)CC1 (stereo not drawn) [VII, 1-phenyl-2-benzyl-3-{4'-[β-(2"-methyl-piperidino)-ethyl]-piperazino-1'}-butanol-2]	500	–	32	–	10	–	> 500	50 (≈ 111000 µM)	32 (≈ 71.2 µM)	500	50
